According to US9642869B2, “Boronic acid derivatives and therapeutic uses thereof” (Rempex Pharmaceuticals, Inc., priority 2013, dated 2017):
Where two headings read alike, the source gives them in different places.

Tests used:
[1] = test system: CTX-M-15 KP1009; experiment: Aztreonam potentiation (MPC@4); type: cell-based; details: minimum BLI concentration inhibiting growth with 4 μg/mL aztreonam
[2] = test system: ECL1002; experiment: Aztreonam potentiation (MPC@4); type: cell-based; details: minimum BLI concentration inhibiting growth with 4 μg/mL aztreonam
[3] = test system: SHV-5 ec308; type: cell-based; details: minimum BLI concentration inhibiting growth with tigemonam at 4 μg/mL
[4] = test system: CTX-M-15 KP1009; type: cell-based
[5] = target: SHV-12 (Klebsiella pneumoniae, UniProt P0AD64, E235K/G234S/L31Q); experiment: Inhibition of nitrocefin cleavage by purified enzyme (Ki); type: biochemical; details: nitrocefin reporter substrate, 10 min preincubation; read-out: Ki (SHV-12, NCF)
SHV-12, sequence (P0AD64 22-286 L31Q/G234S/E235K): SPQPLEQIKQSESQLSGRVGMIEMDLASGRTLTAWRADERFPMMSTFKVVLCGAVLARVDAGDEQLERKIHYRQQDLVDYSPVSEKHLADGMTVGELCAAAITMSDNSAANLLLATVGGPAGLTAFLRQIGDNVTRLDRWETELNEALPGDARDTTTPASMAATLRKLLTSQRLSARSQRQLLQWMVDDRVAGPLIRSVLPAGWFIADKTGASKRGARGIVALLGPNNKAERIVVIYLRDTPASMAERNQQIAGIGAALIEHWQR
Description: Purified enzymes were mixed with various concentrations of inhibitors in reaction buffer and incubated for 10 min at room temperature. Nitrocefin was added and substrate cleavage profiles were recorded at 490 nm every 10 sec for 10 min.

[6] = test system: CTX-M-14 KP1005; type: cell-based
[7] = test system: KP1004 KPC-2; experiment: Biapenem potentiation (MPC@1); type: cell-based; details: minimum BLI concentration inhibiting growth with 1 μg/mL biapenem
Description: (§1) Biapenem was present in the test medium at 1 μg/mL. […] Table 3 summarizes the BLI potency of biapenem potentiation (MPC@1) for two strains overexpressing class A (KPC) and class D (OXA-48) carbapenemases. Biapenem MIC for each strain is also shown.

[8] = test system: OXA-48 KP1086; experiment: Biapenem potentiation (MPC@1); type: cell-based; details: minimum BLI concentration inhibiting growth with 1 μg/mL biapenem
Description: as §1

[9] = test system: SHV-5 ec308; experiment: Aztreonam potentiation (MPC@4); type: cell-based; details: minimum BLI concentration inhibiting growth with 4 μg/mL aztreonam
[10] = Intravenous pharmacokinetics; type: in vivo; details: rat, plasma, rats, IV infusion over 0.5 hours, read-out: Free Cl (converted)
Description: Rats (n=3 per compound) were administered by a single infusion. IV doses were infused over 0.5 hours via an indwelling femoral vein cannula. Plasma (˜0.3 mL) samples were collected from each rat at designated time points up to 24 hours. Blood samples were centrifuged within 5 min of collection at 12000 g for 5 min to obtain plasma. The plasma samples were stored at −80° C. until analyzed. Data were analyzed using WinNonlin.

[11] = test system: KPC-2 KP1004; experiment: Aztreonam potentiation (MPC@4); type: cell-based; details: minimum BLI concentration inhibiting growth with 4 μg/mL aztreonam
[12] = test system: TEM-10 ec302; type: cell-based
[13] = test system: ECL1002; type: cell-based; details: minimum BLI concentration inhibiting growth with tigemonam at 4 μg/mL
[14] = test system: CMY-6 EC1010; experiment: Aztreonam potentiation (MPC@4); type: cell-based; details: minimum BLI concentration inhibiting growth with 4 μg/mL aztreonam

| SMILES | AZT MPC4 CTX-M-15 KP1009 [1] | AZT MPC4 ECL1002 [2] | TIG MPC4 SHV-5 ec308 [3] | TIG MPC4 CTX-M-15 KP1009 [4] | Ki [5] [nM] | TIG MPC4 CTX-M-14 KP1005 [6] | BPM MPC1 KP1004 KPC-2 [7] | BPM MPC1 OXA-48 KP1086 [8] | AZT MPC4 SHV-5 ec308 [9] | clearance ([10]; dose 20 mg/kg) [mL/min/kg] | AZT MPC4 KPC-2 KP1004 [11] | TIG MPC4 TEM-10 ec302 [12] | TIG MPC4 ECL1002 [13] | AZT MPC4 CMY-6 EC1010 [14] | clearance ([10]; dose 10 mg/kg) [mL/min/kg] |
| --- | --- | --- | --- | --- | --- | --- | --- | --- | --- | --- | --- | --- | --- | --- | --- |
| O=CN[C@H]1Cc2cccc(C(=O)O)c2OB1O [Compound 4, (R)-3-formamido-2-hydroxy-3,4-dihydro-2H-benzo[e][1,2]oxaborinine-8-carboxylic acid] | Y (MIC of 1 μg/mL to 10 μg/mL) | Y (MIC of 1 μg/mL to 10 μg/mL) | Y (MIC of 1 μg/mL to 10 μg/mL) | Y (key: X: MIC of less than 1 μg/mL; Y: MIC of 1 μg/mL to 10 μg/mL; Z: MIC of greater than 10 μg/mL) | 1 to 10 | Y (key: X: MIC of less than 1 μg/mL; Y: MIC of 1 μg/mL to 10 μg/mL; Z: MIC of greater than 10 μg/mL) | X (MIC of less than 1 μg/mL) | Y (MIC of 1 μg/mL to 10 μg/mL) | Y (MIC of 1 μg/mL to 10 μg/mL) | 28.8 | X (MIC of less than 1 μg/mL) | Z (key: X: MIC of less than 1 μg/mL; Y: MIC of 1 μg/mL to 10 μg/mL; Z: MIC of greater than 10 μg/mL) | X (MIC of less than 1 μg/mL) | – | – |
| O=C(Cc1cccs1)N[C@H]1Cc2cccc(C(=O)O)c2OB1O [CPD A, reference compound] | Y (MIC of 1 μg/mL to 10 μg/mL) | Y (MIC of 1 μg/mL to 10 μg/mL) | Y (MIC of 1 μg/mL to 10 μg/mL) | Y (key: X: MIC of less than 1 μg/mL; Y: MIC of 1 μg/mL to 10 μg/mL; Z: MIC of greater than 10 μg/mL) | < 1 | Y (key: X: MIC of less than 1 μg/mL; Y: MIC of 1 μg/mL to 10 μg/mL; Z: MIC of greater than 10 μg/mL) | X (MIC of less than 1 μg/mL) | Y (MIC of 1 μg/mL to 10 μg/mL) | X (MIC of less than 1 μg/mL) | – | Y (MIC of 1 μg/mL to 10 μg/mL) | Z (key: X: MIC of less than 1 μg/mL; Y: MIC of 1 μg/mL to 10 μg/mL; Z: MIC of greater than 10 μg/mL) | Y (MIC of 1 μg/mL to 10 μg/mL) | Y (MIC of 1 μg/mL to 10 μg/mL) | – |
| Nc1nnc(C(=O)N[C@H]2Cc3cccc(C(=O)O)c3OB2O)s1 [Compound 19, (R)-3-(5-amino-1,3,4-thiadiazole-2-carboxamido)-2-hydroxy-3,4-dihydro-2H-benzo[e][1,2]oxaborinine-8-carboxylic acid] | – | Y (MIC of 1 μg/mL to 10 μg/mL) | X (MIC of less than 1 μg/mL) | Y (key: X: MIC of less than 1 μg/mL; Y: MIC of 1 μg/mL to 10 μg/mL; Z: MIC of greater than 10 μg/mL) | < 1 | Y (key: X: MIC of less than 1 μg/mL; Y: MIC of 1 μg/mL to 10 μg/mL; Z: MIC of greater than 10 μg/mL) | X (MIC of less than 1 μg/mL) | Y (MIC of 1 μg/mL to 10 μg/mL) | X (MIC of less than 1 μg/mL) | – | Y (MIC of 1 μg/mL to 10 μg/mL) | Y (key: X: MIC of less than 1 μg/mL; Y: MIC of 1 μg/mL to 10 μg/mL; Z: MIC of greater than 10 μg/mL) | Y (MIC of 1 μg/mL to 10 μg/mL) | X (MIC of less than 1 μg/mL) | 20.8 |
